# Columns and labels:
# VEGFR2 = VEGFR2 (Homo sapiens, UniProt P35968); assay: Cellular thermal shift assay (target engagement) in intact HUVECs; assay type: binding; design: stabilize the target in intact HUVECs; endogenous in cells; host or cells: primary HUVECs (passages 3-8); conditions: 40 μM, 3 h, 40-49°C
# Procedure: Then we investigate whether YLT192 bind to VEGFR2 in intact HUVECs. If VEGFR2 is bound by YLT192, it will be stabilized by the physical engagement.
# The ability of YLT192 to interact with, and thereby stabilize the target in intact HUVECs, was evaluated as described by Molina et al.[22] with some modifications. Briefly, subconfluent HUVECs were incubated with 40 μM YLT192 or vehicle for 3 h. Then the cells were detached with trypsin and collected in TBS containing complete protease inhibitor cocktail. The cells were divided into 4 aliquots and heated individually at 40, 43, 46, 49°C for 3 minutes. Subsequently, the cell suspensions were freeze-thawed three times using liquid nitrogen. Soluble proteins were separated from the precipitated fraction by centrifugation at 17,000 g for 20 min. The proteins were then detected with immunoblot analysis using the VEGFR2-antibody.
# HCT116 tumor xenografts = assay: Immunohistochemistry of HCT116 xenograft tumor sections (CD31, Ki67, p-p44/42 MAPK, TUNEL); assay type: in vivo, mice
# Procedure: To better understand the mechanism of antitumor activities in vivo, immunohistochemistry was performed using tumor tissues isolated from HCT116 at the end of the treatment. […] Furthermore, we investigated the activity of YLT192 on apoptosis in HCT116 xenograft tumors by terminal deoxynucleotidyl transferase (dUTP) nick end labeling (TUNEL) staining.
# Tumour tissues obtained from the mice bearing HCT116 tumors were subjected to immunohistological analysis. Briefly, at the end of the treatment, mice were killed and tumor tissues were obtained. Then CD31 staining was conducted using frozen sections of tissue embedded in optimum cutting temperature[49] and immunohistological detection of anti-Ki67 and p-p44/42 MAPK were performed according to the manufacture's instructions using paraffin-embedded sections of tumor[50]. Apoptotic cells in the tumor tissue were detected by terminal deoxynucleotidyl transferase-mediated dUTP nick end-labeling (TUNEL) staining using an apoptotic cell detection kit (Merck Millipore).
# [1] = Body weight of tumor-bearing mice during treatment; assay type: in vivo; conditions: U251 and HCT116 tumor-bearing mice; 25, 50 and 100 mg/kg oral daily
# Procedure: Figure 5 Anti-tumor activities of YLT192 in vivo. (A) U251 and HCT116 tumor-bearing mice were treated orally with YLT192 at 25, 50 and 100 mg/kg or vehicle daily, respectively. […] (B) Body weight changes in YLT192 and vehicle treated mice. […] For A and B, data are means ± SD. (C) and (D), YLT192 inhibited tumor cell proliferation in HCT116 tumor tissues in vivo. Mice bearing HCT116 tumor xenograft were treated with YLT192 at 50 and 100 mg/kg or vehicle and sacrificed at the end of the experiment. The tumor tissues were removed for further immunohistochemistry analysis using anti-Ki67 (C) and anti-p-p44/42 MAPK antibodies (D). (E) YLT192 induced tumor cell apoptosis in HCT116 tumor in vivo. Apoptosis was measured by TUNEL staining (n = 6 mice per group). Scale bars represent 100 μm.
# All animal experiments were approved and conducted by the Institutional Animal Care and Treatment Committee of Sichuan University in China (Permit Number: 20121205). […] Tumor growth and body weight was measured every three days during the treatment. Tumor volumes were calculated using the formula as follow: volume (mm^3) = 0.5 × length (mm) × width (mm)^2. Growth inhibition was calculated from the start of treatment by comparison of the mean change in tumor volume for vehicle and treated group as before.
# HUVEC = assay: VEGF165-stimulated HUVEC growth, MTT assay; assay type: cell-based; conditions: Homo sapiens, induced by VEGF165 (50 ng/mL), read-out: IC50, HUVEC proliferation
# Text: The inhibition effect of YLT192 on VEGF165-stimulated HUVEC growth was examined using MTT assay.
# [2] = tested on: VEGFR2 signaling pathway in HUVEC; assay: Western blot of VEGF-induced VEGFR2 phosphorylation and downstream signalling in HUVEC; assay type: cell-based, human; conditions: concentration-dependent
# Procedure: Figure 2 Effects of YLT192 on HUVECs proliferation, migration, invasion and tube formation. […] Cells were wounded by the pipette and then treated with various concentrations of compounds for 24 hours. Migrated cells were quantified by manual counting (50×). […] The bottom chambers of the transwells were filled with 600 μL EGM2 containing various growth factors while the top chambers were seeded with 4 × 10^4 HUVECs in EBM2 and treated with different concentrations of compounds for 24 hours. Cells invaded through the membrane were stained and quantified (100×). […] HUVECs were seeded on Matrigel layer and treated with different concentrations of compounds. HUVECs tube formation was assessed 6 hours later (50×). One representative experiment of three is shown. For (A), (B) and (C), data represent the mean ± SEM of three different experiments. Each experiment was performed in duplicate.*P < 0.05, **P < 0.01. (D) YLT192 inhibited VEGF-induced phosphorylation of VEGFR2 and its downstream signal regulator p44/42 MAPK, STAT3 and AKT in HUVECs. One representative Western blot of three is presented. Each has the expression of β-actin as internal control. The full size blots were shown in the Supplemental Figure S5 online. (E) Cellular thermal shift assay showing VEGFR2 target engagement by YLT192 in intact HUVECs. One representative Western blot of two is presented. […]
# VEGFR2, sequence (P35968 20-1356): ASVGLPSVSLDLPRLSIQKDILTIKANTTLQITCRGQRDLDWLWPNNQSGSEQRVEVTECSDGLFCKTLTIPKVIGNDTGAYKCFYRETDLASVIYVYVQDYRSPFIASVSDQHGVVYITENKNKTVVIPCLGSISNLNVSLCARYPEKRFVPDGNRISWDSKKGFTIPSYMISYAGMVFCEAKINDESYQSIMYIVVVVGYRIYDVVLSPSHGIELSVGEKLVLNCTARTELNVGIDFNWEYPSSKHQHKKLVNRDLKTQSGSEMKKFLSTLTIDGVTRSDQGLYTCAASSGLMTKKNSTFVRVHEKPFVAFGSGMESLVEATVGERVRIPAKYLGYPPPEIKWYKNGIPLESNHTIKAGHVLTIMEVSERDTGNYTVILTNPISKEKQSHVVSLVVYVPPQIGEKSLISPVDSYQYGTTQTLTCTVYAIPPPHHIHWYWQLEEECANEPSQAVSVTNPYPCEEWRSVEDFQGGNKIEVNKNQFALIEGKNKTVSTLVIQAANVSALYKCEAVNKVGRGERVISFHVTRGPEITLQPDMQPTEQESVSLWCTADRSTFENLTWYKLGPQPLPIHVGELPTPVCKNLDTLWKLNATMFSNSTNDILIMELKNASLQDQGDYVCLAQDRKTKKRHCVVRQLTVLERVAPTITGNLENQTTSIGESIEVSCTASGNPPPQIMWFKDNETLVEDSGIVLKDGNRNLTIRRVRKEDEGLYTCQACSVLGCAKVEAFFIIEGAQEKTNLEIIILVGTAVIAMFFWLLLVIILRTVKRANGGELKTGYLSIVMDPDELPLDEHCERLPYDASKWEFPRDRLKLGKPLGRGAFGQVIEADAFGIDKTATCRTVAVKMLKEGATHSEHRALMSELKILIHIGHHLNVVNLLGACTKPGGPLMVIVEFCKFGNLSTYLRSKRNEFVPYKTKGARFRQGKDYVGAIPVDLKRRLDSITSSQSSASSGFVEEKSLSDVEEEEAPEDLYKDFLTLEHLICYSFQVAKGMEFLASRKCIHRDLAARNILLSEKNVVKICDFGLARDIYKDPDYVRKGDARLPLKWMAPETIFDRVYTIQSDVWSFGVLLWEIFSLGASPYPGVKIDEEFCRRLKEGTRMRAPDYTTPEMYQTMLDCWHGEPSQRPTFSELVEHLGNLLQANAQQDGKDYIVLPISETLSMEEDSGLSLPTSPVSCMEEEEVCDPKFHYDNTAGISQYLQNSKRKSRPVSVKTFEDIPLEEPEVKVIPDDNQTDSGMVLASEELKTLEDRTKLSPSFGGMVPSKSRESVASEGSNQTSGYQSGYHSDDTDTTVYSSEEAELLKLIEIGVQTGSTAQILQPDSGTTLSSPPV
smiles,measurement,setting,value
CNC(=O)c1cc(Oc2ccc(NC(=O)c3cccc(OC)c3)cc2)ccn1 [YLT192],thermal stabilization of VEGFR2,VEGFR2,efficiently stabilized VEGFR2
same,"apoptotic cells in the tumor tissues, TUNEL staining",HCT116 tumor xenografts; 100 mg/kg,increased apoptotic cells
same,phosphorylation of p44/42 MAPK (p-ERK) in tumor tissues,HCT116 tumor xenografts; 100 mg/kg,significant decrease
same,reduction of microvessel density (MVD),"HCT116 tumor xenografts; 100 mg/kg oral daily, anti-CD31, vs vehicle",69%
same,Ki67 staining in tumor tissues,"HCT116 tumor xenografts; 50 and 100 mg/kg, end of treatment",significant reduction
same,body weight vs vehicle group,[1],no significant difference
same,IC50,HUVEC,2300 nM
same,"VEGF-stimulated phosphorylation of VEGFR2 and downstream p44/42 MAPK, AKT, and STAT3",[2],clearly reduced

# Reference: publication PMC4129416, “YLT192, a Novel, Orally Active Bioavailable Inhibitor of VEGFR2 Signaling with Potent Antiangiogenic Activity and Antitumor Efficacy in Preclinical Models” (Scientific Reports, 2014)
